Assay results published in patent US12612412B2, “Antiviral heterocyclic compounds” (Enanta Pharmaceuticals, Inc., priority 2021, dated 2026).
Like-named read-outs stand apart in the source and are kept apart here.

How the values were obtained:
[1] = test system: genotype A, "Long" strain RSV; experiment: RSV-A assay (CPE protection in Hep-2 cells, ATPlite readout); format: cell-based, Human respiratory syncytial virus (HRSV); details: genotype A “Long” strain RSV, MOI 0.1, CPE protection, read-out: Human RSV-A (“Long”)
In short: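 Hep-2 cells (8,000/well) were treated with 2-fold serial compound dilutions in duplicate and infected with RSV at MOI 0.1. After 5 days, protection from cytopathic effect was measured as cell viability by ATPlite luminescence, and EC50 values were derived.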

[2] = test system: recombinant HMPV CAN97-83 containing eGFP (MPV-GFP1); experiment: HMPV antiviral assay Method-A (MPV-GFP1 eGFP fluorescence in Vero E6 cells); format: cell-based, Human metapneumovirus (HMPV); details: read-out: HMPV EC50
Experimental: HMPV antiviral activity was evaluated using a recombinant version of HMPV CAN97-83 engineered to contain the coding sequence for enhanced green fluorescence protein (eGFP) in the 3′ end of the virus genome (MPV-GFP1, ViraTree). Vero E6 cells ([…]) were seeded at a density of 12,000 cells/100 μL/well into 96-well cell plates one day prior to the assay. On the day of screening, the cell culture medium was aspirated from the wells and cells were washed twice with serum-free Eagle's Modified Essential Medium (EMEM, ATCC #) containing 1% penicillin-streptomycin (Invitrogen) (SF-EMEM). Cell washes were performed by dispensing 100 μL SF-EMEM per well and immediately aspirating the wash medium from the well. Following the second wash step, serum-free OptiMEM (Invitrogen, Cat No.) (SF-OptiMEM) containing 0.5 μg/mL TPCK-Trypsin (VENDOR) and 1% penicillin-streptomycin was added to the cells at 50 μL/well. Compounds were added into the 96-well plates using a JANUS automated liquid handling system (VENDOR). Compounds were initially diluted 1:50 into an intermediate 96-well plate containing SF-OptiMEM prior to transfer to the assay plate (25 μL/well). Each of the test compounds were tested in duplicate wells at final concentrations starting from 8 μM or 2 μM using ½ stepwise dilutions for a total of 8 points. Virus infection was performed by preparing a working stock of MPV-GFP1 at a multiplicity of infection (MOI) equal to 0.05/25 μL and aliquoting 25 μL of virus inoculum to the compound and positive control wells. SF-OptiMEM was added (25 μL/well) to the appropriate wells to serve as a virus-free negative control for the assay. The final DMSO concentration of all wells is 0.5%. Plates were incubated at 32° C., 5% CO2 for 5 days.
After 5 days incubation, eGFP fluorescence intensity was measured at (X) […] wavelength using a Spectramax i3× plate reader (VENDOR). Percent viral inhibition was calculated using the following equation: y=[…]
Where XQ is the fluorescence intensity measured in a well containing recombinant MPV-GFP1-infected, compound-treated cells and XP is the average fluorescence intensity measured in the wells containing untreated cells infected with recombinant virus. EC50 values were then calculated by non-linear regression using a four parameter curve logistic equation. The curve fit model employed was XLFit Dose Response One Site Model 200: y=(A+(B/(1+((x/C)^D))))
Where A is the minimum y value, B is the maximum y value, C is the log EC50 value, and D is the slope factor. […] EC50 ranges are as follows: A<0.5 μM; B>0.5 μM.

[3] = human respiratory syncytial virus
[4] = human metapneumovirus, Vero C1008, 120 h

SMILES	EC50 [1, 3] [nM]	EC50 [2, 4] [nM]	EC50 [1] [nM]	EC50 ([2]; Method-A, MPV-GFP1 in Vero E6 cells, eGFP fluorescence after 5 days) [nM]
CCc1nc2c(OC)cc(C(=O)NC[C@](O)(c3cc4c(c(-c5ccc(F)cc5)n3)OC[C@]4(C)C(N)=O)C(F)(F)F)cc2s1 [Example 16]	< 200	< 500		
CC1(C(N)=O)COc2c1cc(C(O)(CNC(=O)c1cc(OCC(F)F)n3nc(C4CC4)cc3c1)C(F)(F)F)nc2-c1ccc(F)cc1 (stereo not drawn) [Example 68]			< 200	< 500
COc1cc(C(=O)NC[C@](O)(c2cc3c(c(-c4ccc(F)c(Cl)c4)n2)OC[C@]3(C)C(N)=O)C(F)(F)F)cn2cc(C(F)F)nc12 [Example 65]	< 200	> 500		
C[C@]1(C(N)=O)COc2c1cc([C@@](O)(CNC(=O)c1cc(Cl)c3nn(C(F)F)cc3c1)C(F)(F)F)nc2-c1ccc(F)cc1 [Example 42]	< 200	< 500		
C[C@]1(C(N)=O)COc2c1cc([C@@](O)(CNC(=O)c1cc(Cl)c3nc(N)oc3c1)C(F)(F)F)nc2-c1ccc(F)cc1 [Example 91]	< 200	> 500		
CC(C)[C@H](N)C(=O)Nc1nc2ccc(C(=O)NC[C@](O)(c3cc4c(c(-c5ccc(F)cc5)n3)OC[C@]4(C)C(N)=O)C(F)(F)F)cc2s1 [Example 155]	< 200	> 500		
Cc1cc2cc(C(=O)NC[C@](O)(c3cc4c(c(-c5ccc(F)cc5)n3)OC[C@]4(C)C(N)=O)C(F)(F)F)cc(OC(F)(F)F)c2nc1C [Example 179]	< 200	> 500		
Cn1cc2cc(C(=O)NC[C@](O)(c3cc4c(c(-c5ccc(F)cc5)n3)OC[C@]4(C)C(N)=O)C(F)(F)F)cc(F)c2n1 [Example 22]	< 200	< 500		
Cc1cc2cc(C(=O)NC[C@](O)(c3cc4c(c(-c5ccc(F)cc5)n3)OC[C@]4(C)C(N)=O)C(F)(F)F)cc(OC3CC3)c2nc1C [Example 178]	< 200	> 500		
C[C@]1(C(N)=O)COc2c1cc([C@@](O)(CNC(=O)c1ccc3nc(C4CC4)cn3c1)C(F)(F)F)nc2-c1ccc(F)c(Cl)c1 [Example 60]	< 200	< 500		
Cc1ccc2cc(C(=O)NC[C@](O)(c3cc4c(c(-c5ccc(F)cc5)n3)OC[C@]4(C)C(N)=O)C(F)(F)F)cc(OC(F)F)c2n1 [Example 327]	< 200	> 500		
CCNc1nc2ccc(C(=O)NC[C@](O)(c3cc4c(c(-c5ccc(F)cc5)n3)OC[C@]4(C)C(N)=O)C(F)(F)F)cc2s1 [Example 139]	< 200	> 500		
COc1ccc(Nc2cc(C(=O)NC[C@](O)(c3cc4c(c(-c5ccc(F)cc5)n3)OC[C@]4(C)C(N)=O)C(F)(F)F)cc3cc(C)cnc23)nn1 [Example 121]	< 200	< 500		
Cc1cn2cc(C(=O)NC[C@](O)(c3cc4c(c(-c5ccc(F)cc5)n3)OC[C@]4(C)C(N)=O)C3CC3)ccc2n1 [Example 52]	< 200	< 500		
COc1cc(C(=O)NC[C@](O)(c2cc3c(c(-c4ccc(F)cc4)n2)OC[C@]3(C)C(N)=O)C(F)(F)F)cc2cc(C)nnc12 [Example 9]	< 200	< 500		
CCn1cc2cc(C(=O)NC[C@](O)(c3cc4c(c(-c5ccc(F)cc5)n3)OC[C@]4(C)C(N)=O)C(F)(F)F)ccc2n1 [Example 168]	< 200	< 500		
C[C@]1(C(N)=O)COc2c1cc([C@@](O)(CNC(=O)c1cc(F)c3nc(N)sc3c1)C(F)(F)F)nc2-c1ccc(C#N)cc1 [Example 309]	< 200	> 500		
COc1cc(C(=O)NC[C@](O)(c2cc3c(c(-c4ccc(F)cc4)n2)OC[C@]3(C)C(N)=O)C(F)(F)F)cc2cc(C3CC3)nn12 [Example 92]	< 200	< 500		

SMILES	EC50 [1, 3] [nM]	EC50 [2, 4] [nM]	EC50 [1] [nM]	EC50 ([2]; Method-A, MPV-GFP1 in Vero E6 cells, eGFP fluorescence after 5 days) [nM]
COc1cc(C(=O)NC[C@](O)(c2cc3c(c(-c4ccc(F)cc4)n2)OC[C@]3(CO)C(N)=O)C(F)(F)F)cc2cc(C)c(C)nc12 [Example 167]	< 200	> 500		
Cc1nc2c(Cl)cc(C(=O)NC[C@](O)(c3cc4c(c(-c5ccc(F)cc5)n3)OC[C@]4(C)C(N)=O)C(F)(F)F)cc2s1 [Example 77]	< 200	< 500		
COc1cc(C(=O)NC[C@](O)(c2cc3c(c(-c4ccc(F)cc4)n2)OC[C@]3(C)C(N)=O)C(F)(F)F)cn2cc(C(F)(F)F)nc12 [Example 49]	< 200	> 500		
COc1cc(C(=O)NC[C@](O)(c2cc3c(c(-c4ccc(F)cc4)n2)OC[C@]3(C)C(N)=O)C(F)(F)F)cc2ccnnc12 [Example 6]	< 200	< 500		
COc1cc(C(=O)NC[C@](O)(c2cc3c(c(-c4ccc(F)cc4)n2)OC[C@]3(C)C(N)=O)C(F)(F)F)cn2cc(CF)nc12 [Example 62]	< 200	> 500		
C[C@]1(C(N)=O)COc2c1cc([C@@](O)(CNC(=O)c1cc(Cl)c3ncc(C4CC4)cc3c1)C(F)(F)F)nc2-c1ccc(F)cc1 [Example 72]	< 200	< 500		
Cc1nc2c(OC(F)(F)F)cc(C(=O)NC[C@](O)(c3cc4c(c(-c5ccc(F)cc5)n3)OC[C@]4(C)C(N)=O)C(F)(F)F)cc2s1 [Example 97]	< 200	> 500		
CCc1cc(C(=O)NC[C@](O)(c2cc3c(c(-c4ccc(F)cc4)n2)OC[C@]3(C)C(N)=O)C(F)(F)F)cc2cn[nH]c12 [Example 102]	< 200	< 500		
COc1cc(C(=O)NC[C@](O)(c2cc3c(c(-c4ccc(F)cc4)n2)OC[C@]3(C)C(N)=O)C(F)(F)F)cc2cc(C3CCC3)nn12 [Example 322]	< 200	> 500		
C[C@]1(C(N)=O)COc2c1cc([C@@](O)(CNC(=O)c1cc(Cl)c3nc(N)sc3c1)C(F)(F)F)nc2-c1ccc(F)c(Cl)c1 [Example 13]	< 200	< 500		
C[C@@H](N)C(=O)Nc1nc2ccc(C(=O)NC[C@](O)(c3cc4c(c(-c5ccc(F)cc5)n3)OC[C@]4(C)C(N)=O)C(F)(F)F)cc2s1 [Example 154]	< 200	> 500		
C[C@]1(C(N)=O)COc2c1cc([C@@](O)(CNC(=O)c1ccc3nnc(C4CC4)cc3c1)C(F)(F)F)nc2-c1ccc(F)cc1 [Example 7]	< 200	< 500		
C[C@]1(C(N)=O)COc2c1cc([C@@](O)(CNC(=O)c1cc(OC3CC3)c3nc(C4CC4)sc3c1)C(F)(F)F)nc2-c1ccc(F)cc1 [Example 96]	< 200	< 500		
C[C@]1(C(N)=O)COc2c1cc([C@@](O)(CNC(=O)c1ccc3nc(NC(=O)[C@@H]4CCCN4)sc3c1)C(F)(F)F)nc2-c1ccc(F)cc1 [Example 160]	< 200	> 500		
COc1cc(C(=O)NC[C@](O)(c2cc3c(c(-c4ccc(F)cc4)n2)OC[C@]3(C)C(N)=O)C(F)(F)F)cc2cc(C)c(CO)nc12 [Example 4]	< 200	< 500		
NC(=O)[C@@]1(C2CC2)COc2c1cc([C@@](O)(CNC(=O)c1cc(OC3CC3)c3ncccc3c1)C(F)(F)F)nc2-c1ccc(F)cc1 [Example 270]	< 200	< 500		
COc1cc(C(=O)NC[C@](O)(c2cc3c(c(-c4ccc(F)cc4)n2)OC[C@]3(C)C(N)=O)C(F)(F)F)cc2c1OCO2 [Example 441]	< 200	> 500		
Cn1cc2cc(C(=O)NC[C@](O)(c3cc4c(c(-c5ccc(F)cc5)n3)OC[C@]4(C)C(N)=O)C(F)(F)F)cc(OC3CC3)c2n1 [Example 27]	< 200	< 500		
